In general, inhibition refers to the change of the read-out against control, counted positive when it falls.

Inhibition data for 30 compounds are collected here from patent US10610520B2, “Heterocyclic compound” (Takeda Pharmaceutical Company Limited, priority 2016, dated 2020).

The target of the experiment is T1, His-hMAGL (recombinant polyhistidine tagged human MAGL protein) (Homo sapiens, UniProt Q99685).
T1 construct: made in house; host or cells: E. coli BL21(DE3)
T1 sequence (Q99685 1-303): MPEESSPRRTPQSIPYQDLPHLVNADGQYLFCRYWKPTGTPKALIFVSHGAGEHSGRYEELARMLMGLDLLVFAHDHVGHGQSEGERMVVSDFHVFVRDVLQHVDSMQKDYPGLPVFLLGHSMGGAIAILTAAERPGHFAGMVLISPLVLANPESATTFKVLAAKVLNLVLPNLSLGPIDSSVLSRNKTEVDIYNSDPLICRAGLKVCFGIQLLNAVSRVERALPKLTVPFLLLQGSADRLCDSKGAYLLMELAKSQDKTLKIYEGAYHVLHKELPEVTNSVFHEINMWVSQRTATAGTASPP
Put plainly: Measurement of MAGL inhibitory activity (arachidonic acid production from 2-arachidonylglycerol, RapidFire-mass spectrometry). Format: biochemical. The conditions noted are these: MAGL inhibitory rate, test compound 10 μM, 60 min preincubation, 2-arachidonylglycerol substrate. The gist of the method:
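Arachidonic acid formed was quantified by online solid-phase extraction and triple-quadrupole MS in negative SRM mode against a d8 internal standard. Reaction: recombinant His-hMAGL (7.5 ng/mL, pH 7.5 Tris buffer with Triton X-100 and BSA) plus 2-AG (5 μL of 150 μM stock) for 10 min at room temperature, quenched with 2% formic acid. Percent inhibition corrected for enzyme-free background.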

In the case of `O=C1NC2(CO1)CN(C(=O)c1sc3cccc(Cl)c3c1Cl)C2` [Example 289, 2-((3,4-dichloro-1-benzothiophen-2-yl)carbonyl)-7-oxa-2,5-diazaspiro[3.4]octan-6-one], the inhibition at 10 µM worked out at 101%. In the case of `O=C1NC2(CO1)CN(C(=O)c1sc3c(Cl)c(OC(F)(F)F)ccc3c1Cl)C2` [Example 290, 2-((3,7-dichloro-6-(trifluoromethoxy)-1-benzothiophen-2-yl)carbonyl)-7-oxa-2,5-diazaspiro[3.4]octan-6-one], the inhibition at 10 µM came to 101%. `O=C1NC2(CO1)CN(C(=O)c1sc3cc(C(F)F)cc(C(F)(F)F)c3c1Cl)C2` [Example 291, 2-((3-chloro-6-(difluoromethyl)-4-(trifluoromethyl)-1-benzothiophen-2-yl)carbonyl)-7-oxa-2,5-diazaspiro[3.4]octan-6-one]: the inhibition at 10 µM turned out to be 101%. `O=C1NC2(CO1)CN(C(=O)c1sc3cc(OC(F)F)cc(C(F)(F)F)c3c1Cl)C2` [Example 292, 2-((3-chloro-6-(difluoromethoxy)-4-(trifluoromethyl)-1-benzothiophen-2-yl)carbonyl)-7-oxa-2,5-diazaspiro[3.4]octan-6-one]: the inhibition at 10 µM was determined as 100%. As for `O=C1NC2(CO1)CN(C(=O)c1sc3cc(OC(F)(F)F)cc(Cl)c3c1Cl)C2` [Example 293, 2-((3,4-dichloro-6-(trifluoromethoxy)-1-benzothiophen-2-yl)carbonyl)-7-oxa-2,5-diazaspiro[3.4]octan-6-one], the inhibition at 10 µM was 101%. As to `COc1cc(F)c2c(Cl)c(C(=O)N3CC4(COC(=O)N4)C3)sc2c1Cl` [Example 294, 2-((3,7-dichloro-4-fluoro-6-methoxy-1-benzothiophen-2-yl)carbonyl)-7-oxa-2,5-diazaspiro[3.4]octan-6-one], the inhibition at 10 µM was 100%. With `Cc1cc2c(Cl)c(C(=O)N3CC4(COC(=O)N4)C3)sc2cc1OC(F)(F)F` [Example 295, 2-((3-chloro-5-methyl-6-(trifluoromethoxy)-1-benzothiophen-2-yl)carbonyl)-7-oxa-2,5-diazaspiro[3.4]octan-6-one] the figure was 101%; with `Cc1cc(OC(F)(F)F)cc2sc(C(=O)N3CC4(COC(=O)N4)C3)c(Cl)c12` [Example 296, 2-((3-chloro-4-methyl-6-(trifluoromethoxy)-1-benzothiophen-2-yl)carbonyl)-7-oxa-2,5-diazaspiro[3.4]octan-6-one], 101%; with `O=C1NC2(CO1)CN(C(=O)c1sc3c(Cl)ccc(OC(F)(F)F)c3c1Cl)C2` [Example 297, 2-((3,7-dichloro-4-(trifluoromethoxy)-1-benzothiophen-2-yl)carbonyl)-7-oxa-2,5-diazaspiro[3.4]octan-6-one], 100%. The figure for `O=C1NC2(CO1)CN(C(=O)c1sc3cc(OC(F)(F)F)c(Cl)cc3c1Cl)C2` [Example 298, 2-((3,5-dichloro-6-(trifluoromethoxy)-1-benzothiophen-2-yl)carbonyl)-7-oxa-2,5-diazaspiro[3.4]octan-6-one] is 100%; for `O=C1NC2(CO1)CN(C(=O)c1sc3ccc(OC(F)(F)F)cc3c1C(F)F)C2` [Example 300, 2-((3-(difluoromethyl)-5-(trifluoromethoxy)-1-benzothiophen-2-yl)carbonyl)-7-oxa-2,5-diazaspiro[3.4]octan-6-one] it is 101%. On to `O=C1NC2(CO1)CN(C(=O)c1sc3c(F)ccc(OC(F)(F)F)c3c1Cl)C2` [Example 301, 2-((3-chloro-7-fluoro-4-(trifluoromethoxy)-1-benzothiophen-2-yl)carbonyl)-7-oxa-2,5-diazaspiro[3.4]octan-6-one], for which the inhibition at 10 µM is 100%. Turning to `O=C1NC2(CO1)CN(C(=O)c1sc3c(C(F)F)c(OC(F)(F)F)ccc3c1Cl)C2` [Example 302, 2-((3-chloro-7-(difluoromethyl)-6-(trifluoromethoxy)-1-benzothiophen-2-yl)carbonyl)-7-oxa-2,5-diazaspiro[3.4]octan-6-one], the inhibition at 10 µM turned out to be 101%.

Regarding `O=C1NC2(CO1)CN(C(=O)c1sc3c(Cl)c(OC(F)F)cc(F)c3c1Cl)C2` [Example 303, 2-((3,7-dichloro-6-(difluoromethoxy)-4-fluoro-1-benzothiophen-2-yl)carbonyl)-7-oxa-2,5-diazaspiro[3.4]octan-6-one], the inhibition at 10 µM was found to be 100%. For `Cc1c(OC(F)F)cc(F)c2c(Cl)c(C(=O)N3CC4(COC(=O)N4)C3)sc12` [Example 304, 2-((3-chloro-6-(difluoromethoxy)-4-fluoro-7-methyl-1-benzothiophen-2-yl)carbonyl)-7-oxa-2,5-diazaspiro[3.4]octan-6-one], the inhibition at 10 µM was found to be 100%. The figure for `O=C1NC2(CO1)CN(C(=O)c1sc3cc(C(F)(F)F)cc(OC(F)F)c3c1Cl)C2` [Example 305, 2-((3-chloro-4-(difluoromethoxy)-6-(trifluoromethyl)-1-benzothiophen-2-yl)carbonyl)-7-oxa-2,5-diazaspiro[3.4]octan-6-one] is 100%; for `O=C1NC2(CO1)CN(C(=O)c1sc3cc(OC(F)(F)F)c(C(F)F)cc3c1Cl)C2` [Example 306, 2-((3-chloro-5-(difluoromethyl)-6-(trifluoromethoxy)-1-benzothiophen-2-yl)carbonyl)-7-oxa-2,5-diazaspiro[3.4]octan-6-one] it is 100%. On to `O=C1NC2(CO1)CN(C(=O)c1sc3cc(Br)ccc3c1Cl)C2` [Example 307, 2-((6-bromo-3-chloro-1-benzothiophen-2-yl)carbonyl)-7-oxa-2,5-diazaspiro[3.4]octan-6-one], for which the inhibition at 10 µM was determined as 100%. Consider `O=C1NC2(CO1)CN(C(=O)c1sc3cc(Cl)cc(Cl)c3c1Cl)C2` [Example 308, 2-((3,4,6-trichloro-1-benzothiophen-2-yl)carbonyl)-7-oxa-2,5-diazaspiro[3.4]octan-6-one], for which the inhibition at 10 µM came out at 101%. With `O=C1NC2(CO1)CN(C(=O)c1sc3cc(C4=CCC(F)(F)CC4)cc(F)c3c1Cl)C2` [Example 309, 2-((3-chloro-6-(4,4-difluorocyclohex-1-en-1-yl)-4-fluoro-1-benzothiophen-2-yl)carbonyl)-7-oxa-2,5-diazaspiro[3.4]octan-6-one] the figure was 101%; with `O=C1NC2(CO1)CN(C(=O)c1sc3cc(C4=CCC(F)(F)CC4)cc(F)c3c1C1=CCC(F)(F)CC1)C2` [Example 310, 2-((3,6-bis(4,4-difluorocyclohex-1-en-1-yl)-4-fluoro-1-benzothiophen-2-yl)carbonyl)-7-oxa-2,5-diazaspiro[3.4]octan-6-one], 100%; with `O=C1NC2(CO1)CN(C(=O)c1sc3cc(C4CC4)cc(F)c3c1Cl)C2` [Example 311, 2-((3-chloro-6-cyclopropyl-4-fluoro-1-benzothiophen-2-yl)carbonyl)-7-oxa-2,5-diazaspiro[3.4]octan-6-one], 101%. Turning to `O=C1NC2(CO1)CN(C(=O)c1sc3cc(C4CC4)cc(F)c3c1C1CC1)C2` [Example 312, 2-((3,6-dichloropropyl-4-fluoro-1-benzothiophen-2-yl)carbonyl)-7-oxa-2,5-diazaspiro[3.4]octan-6-one], the inhibition at 10 µM turned out to be 101%. For the compound `O=C1NC2(CO1)CN(C(=O)c1sc3c(F)ccc(OC(F)F)c3c1Cl)C2` [Example 313, 2-((3-chloro-4-(difluoromethoxy)-7-fluoro-1-benzothiophen-2-yl)carbonyl)-7-oxa-2,5-diazaspiro[3.4]octan-6-one], the inhibition at 10 µM turned out to be 101%.

For `O=C1NC2(CO1)CN(C(=O)c1sc3cc(F)cc(OC(F)(F)F)c3c1Cl)C2` [Example 314, 2-((3-chloro-6-fluoro-4-(trifluoromethoxy)-1-benzothiophen-2-yl)caarbonyl)-7-oxa-2,5-diazaspiro[3.4]octan-6-one], the inhibition at 10 µM is 101%. With `O=C1NC2(CO1)CN(C(=O)c1sc3c(F)c(OC(F)(F)F)cc(F)c3c1Cl)C2` [Example 315, 2-((3-chloro-4,7-difluoro-6-(trifluoromethoxy)-1-benzothiophen-2-yl)carbonyl)-7-oxa-2,5-diazaspiro[3.4]octan-6-one], the inhibition at 10 µM was 100%.

Take `O=C1NC2(CO1)CN(C(=O)c1sc3cc(OC(F)(F)F)cc(C(F)F)c3c1Cl)C2` [Example 316, 2-((3-chloro-4-(difluoromethyl)-6-(trifluoromethoxy)-1-benzothiophen-2-yl)carbonyl)-7-oxa-2,5-diazaspiro[3.4]octan-6-one]: the inhibition at 10 µM was 100%. In the case of `O=C1CCC2(CCN(C(=O)N3CC(COc4ccc(C(F)(F)F)cc4F)C3)C2)N1` (stereo not drawn) [Example 319, 7-((3-((2-fluoro-4-(trifluoromethyl)phenoxy)methyl)azetidin-1-yl)carbonyl)-1,7-diazaspiro[4.4]nonan-2-one], the inhibition at 10 µM was determined as 96%. With `O=C1CCC2(CCN(C(=O)N3CC(COc4ccc5c(c4)CCCC5)C3)C2)N1` (stereo not drawn) [Example 320, 7-((3-((5,6,7,8-tetrahydronaphthalen-2-yloxy)methyl)azetidin-1-yl)carbonyl)-1,7-diazaspiro[4.4]nonan-2-one], the inhibition at 10 µM came out at 94%.

Consider `O=C1NC2(CCN(C(=O)c3sc4cc(OC(F)(F)F)ccc4c3Cl)C2)CO1` (stereo not drawn) [Example 321, 7-((3-chloro-6-(trifluoromethoxy)-1-benzothiophen-2-yl)carbonyl)-3-oxa-1,7-diazaspiro[4.4]nonan-2-one], for which the inhibition at 10 µM is 100%.
